According to patent publication US10588962B2, “Carbohydrate-glycolipid conjugate vaccines” (Max-Planck-Gesellschaft zur Förderung der Wissenschaften …, priority 2012, dated 2020):

Test: Immunogenic activity of further glycolipids conjugated to PS4
Settings: glycolipid conjugated to PS4

Q: With “(2S,3S,4R)-1-(6-(Carbonyl-1-ethyl-2-(tri(1-ethanoyl)1-ethanoyl-2-amino)-α-D-galactopyranosyl)-2-hexacosanoylaminooctadecane-3,4-diol [Compound 27a]” as the substance, how does the immunogenic activity read?
A: The immunogenic activity was “showed immunogenic activity”.
